A short description of the series: Water extraction test of 10 ppm marker solution in kerosene. The format is physicochemical. To be noted: 10 mL of 10 ppm solution in kerosene stirred with 10 mL water for ½ hour; layers separated, 2 mL developer added to each layer. Here is the method:
A marker solution was prepared by dissolving a 100 mg portion of the residue in xylenes (100 mL), and diluting 1 mL of the resulting solution to 100 mL with kerosene to make a 10 ppm solution.
A developer was made by dissolving 1 g of a 40% solution of benzyltrimethylammonium hydroxide in methanol in 99 g of 2-ethyl-1-hexanol. To a 10 mL portion of the 10 ppm marker solution prepared above was added 2.5 mL of the developer. […] If necessary, quantitative determination of the marker concentration can be accomplished by measuring the absorbance of the solution at a wavelength of 581 nm.
A 10 mL portion of the 10 ppm solution prepared above was stirred with 10 mL of water for ½ hour and the layers were separated. […] Addition of 2 mL of developer solution to the water layer gave no color.

Turning to `CCCC(=O)Oc1ccc(C2(c3ccc(OC(=O)CCC)c(C)c3)OC(=O)c3ccccc32)cc1C` [Example 1, Di-n-Butyl Ester of o-Cresolphthalein], the “extraction of the marker into the water layer” value was “not extracted into the water layer”.

Source of the values: US20020038064A1, “Colorless petroleum marker dyes” (priority 2000, published 2002).
